# Test results reported in publication PMC6240096, “A hPSC-based platform to discover gene-environment interactions that impact human β-cell and dopamine neuron survival” (Nature Communications, 2018).
# How the values were obtained:
# [1] = test system: MYH6:mCherry+ cardiomyocytes; assay: Inhibition curve on hESC-derived cardiomyocytes; format: cell-based, human; details: cell survival rate, 4 days, n=3
# Procedure: (§1) hESCs-derived INS^+ cells, MSCs[43], neurons, and hepatocytes[44] were derived based on the reported protocols and re-plated on 96-well plates with Accutase digestion. Cardiomyocytes (CMs) were differentiated from H9-MYH6: mCherry reporter line, based on the reported protocol. After overnight incubation, cells were treated with DMSO or different doses of hit compounds for 4 days. After fixation, the cells were stained with markers for each cell type. DAPI was used to stain cell nuclei. Plates were analyzed by ImageXpress^MICRO Automated High-Content Analysis System.
# (§2) Supplementary Figure 4. Assessment of the toxic effect of propargite on different type […]
# (§3) (a) Flow cytometry char acterization of CD29+ and CD73+ mesenchymal stem cells (MSCs) derived from H1 hESCs. (b-c) microscope image (b) and flow cytometry (c) characterization of cardiomyocytes expressing MYH6+ derived from a MYH6:mCherry reporter hESC line. (d-e) Immunocytochemistry characterization of MAP2+/TUJ1+ and HuC/D+/MAP2+ neurons (d) and A1AT+/ASGPR1+ hepatocytes (e) derived from H1 hESCs. All the cells were counterstained by DAPI (blue). Scale bars, 100 µm. (f) Inhibition curve of propargite on pancreatic β-like cells, MSCs, cardiomyocytes, neurons, and hepatocytes derived from hESCs, and BJ-fibroblasts (n=3). Values presented as mean±S.D. […]
# [2] = test system: HuC/D+ neurons; assay: Inhibition curve / survival of hESC-derived neurons; format: cell-based, human
# Procedure: as §1, §2, §3
# [3] = test system: mDA neurons; assay: Survival of hESC-derived midbrain dopamine neurons; format: cell-based, human
# Procedure: Scale bars, 50 μm. b Relative cell survival rate of cortical- and mDA-neurons treated with DMSO or different doses of propargite. […] White arrows indicate propargite-treated mDA cells (TH; red) co-stained with the DNA damage marker (rH2AX; green), and all cells were counterstained with DAPI (blue). […] Values presented as mean ± S.D. p-value was calculated by unpaired two-tailed Student’s t-test were *p < 0.05, **p < 0.01. n.s. indicates a non-significant difference.
# Cortical and mDA differentiation from hESC were done with similar protocols those published by our lab previously[36],[37].
# [4] = test system: hESC-derived INS+ cells; assay: Ki67 proliferation staining of hESC-derived INS+ cells; format: cell-based, human; details: 1.6 µM propargite vs DMSO
# Procedure: (§4) Cells were fixed with 10% (v/v) formalin for 20 min at room temperature (RT) and blocked in a solution of Mg^2+- and Ca^2+-free PBS containing 5% horse serum and 0.3% Triton-X for 1 h at room temperature and followed by incubation with primary antibody at 4 °C overnight. The following primary antibodies and dilutions have been used in this study: goat anti-SOX17 (1:500, R&D system, AF1924), rabbit anti-FOXA2 (1:500, Upstate, 07-633), goat anti-PDX1 (1:500, R&D system, AF2419), mouse anti-NKX6.1 (1:100; BCBC, Ab2024), guinea pig anti-INS (1:1000, Dako, A0564), guinea pig anti-GLUCAGON (1:500, Linco, 4031), mouse anti-Ki67 (1:100, Life technologies, 556003), mouse anti-AMYLASE (1:100, Santa Cruz, sc-46657), rabbit anti-Active Caspase-3 (1:500, BD Bioscience, 559565), mouse anti-Troponin T (1:500, Thermo Scientific, MA5-12960), mouse anti-Actin, Cardiac (1:300, Sigma, A9357), rabbit anti-TUJ1 (1:500, Covance, MRB-435P), Chicken anti-MAP2 (1:1000, Abcam, Ab5392), mouse anti-HuC/D (1:500, Invitrogen, A-21271), mouse anti-MAP2 (1:1500, Sigma, M1406), rabbit anti-TH (1:500, Pel freeze, P40101-0), rat-anti-CTIP2 (1:500, Abcam, ab18465), goat anti-FOXA2 (1:200, R&D, 463783). Donkey anti-guinea pig, mouse, goat, rabbit or chicken secondary antibodies conjugated with Alexa-Fluor-488, Alexa-Fluor-594 or Alexa-Fluor-647 fluorophore (1:500, Life technologies) were used. […]
# [5] = test system: MIN6 cells; assay: Apoptosis analysis (Annexin V flow cytometry, active caspase-3 staining); format: cell-based, mouse; details: immunocytochemistry, 1.6 µM
# Procedure: Cells were fixed with 10% (v/v) formalin for 20 min at room temperature (RT) and blocked in a solution of Mg^2+- and Ca^2+-free PBS containing 5% horse serum and 0.3% Triton-X for 1 h at room temperature and followed by incubation with primary antibody at 4 °C overnight. […]
# Cells were dissociated by Accutase (Stem Cells) and washed with cold DPBS and then detected with FITC Annexin V Apoptosis Detection Kit I (BD Bioscience, 556547), and analyzed within 1 h by FACSVantage SE (Becton Dickinson). […]
# cells. (b, c) Flow cytometry analysis (b) and quantification (c) of the percentage of […]
# Etoposide was used as a positive control. Values presented as mean±S.D. (d, e) Immunocytochemistry analysis (d) and quantification (e) of the percentage of Active Caspase-3+ cells in 1.6 µM propargite treated MIN6 cells (n=3). […]
# [6] = test system: MIN6 cells; assay: Ki67 proliferation staining of MIN6 cells; format: cell-based, mouse; details: 1.6 μM propargite vs DMSO, 4 days
# Procedure: as §4
substance,measurement,setting,value
2-(4-tert-butylphenoxy)-cyclohexyl prop-2-yne-1-sulfonate [propargite],IC50,[1],29 µM
same,susceptibility of HuC/D+ neurons,[2]; 1.6 μM propargite,highly susceptible
same,IC50,"[2]; cell survival rate, 4 days, n=3",1.46 µM
same,mDA neuron cell death,"[3]; concentrations at 1 and 3 μM, compared with cortical neurons",significant mDA neuron cell death
same,decrease of total cell number in DA neuron cultures,"[3]; propargite 1 µM, 3 µM",40-60%
same,sensitivity of GSTT1-/- hESC-derived mDA neurons vs GSTT1+/+ or GSTM1-/-,"[3]; propargite 3 μM, FOXA2+ cells",more sensitive
same,percentage of Ki67+/INS+ cells,[4],did not affect
same,caspase-3 activation,[5],nor caspase-3 activation
same,percentage of Ki67+/INS+ cells,[6],No significant difference
